Reference: ChEMBL document CHEMBL1140451, “Inhibitory effect of synthetic C-C biflavones on various phospholipase A(2)s activity” (Bioorg Med Chem, 2007)

What was measured:
Type in all cases: cell-based
[1] = biological target: T1, Group 10 secretory phospholipase A2 (Homo sapiens, UniProt O15496); experiment: Inhibition of human cloned sPLA2-10 expressed in HEK293 cells
T1 sequence (O15496 whole entry): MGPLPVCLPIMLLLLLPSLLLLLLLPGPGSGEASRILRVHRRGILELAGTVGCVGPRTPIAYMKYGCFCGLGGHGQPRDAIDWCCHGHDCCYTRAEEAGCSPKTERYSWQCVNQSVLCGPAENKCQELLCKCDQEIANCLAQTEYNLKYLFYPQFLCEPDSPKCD

[2] = biological target: T2, Cytosolic phospholipase A2 (Homo sapiens, UniProt P47712); experiment: Inhibition of human cloned cPLA2 expressed in HEK293 cells
T2 sequence (P47712 whole entry): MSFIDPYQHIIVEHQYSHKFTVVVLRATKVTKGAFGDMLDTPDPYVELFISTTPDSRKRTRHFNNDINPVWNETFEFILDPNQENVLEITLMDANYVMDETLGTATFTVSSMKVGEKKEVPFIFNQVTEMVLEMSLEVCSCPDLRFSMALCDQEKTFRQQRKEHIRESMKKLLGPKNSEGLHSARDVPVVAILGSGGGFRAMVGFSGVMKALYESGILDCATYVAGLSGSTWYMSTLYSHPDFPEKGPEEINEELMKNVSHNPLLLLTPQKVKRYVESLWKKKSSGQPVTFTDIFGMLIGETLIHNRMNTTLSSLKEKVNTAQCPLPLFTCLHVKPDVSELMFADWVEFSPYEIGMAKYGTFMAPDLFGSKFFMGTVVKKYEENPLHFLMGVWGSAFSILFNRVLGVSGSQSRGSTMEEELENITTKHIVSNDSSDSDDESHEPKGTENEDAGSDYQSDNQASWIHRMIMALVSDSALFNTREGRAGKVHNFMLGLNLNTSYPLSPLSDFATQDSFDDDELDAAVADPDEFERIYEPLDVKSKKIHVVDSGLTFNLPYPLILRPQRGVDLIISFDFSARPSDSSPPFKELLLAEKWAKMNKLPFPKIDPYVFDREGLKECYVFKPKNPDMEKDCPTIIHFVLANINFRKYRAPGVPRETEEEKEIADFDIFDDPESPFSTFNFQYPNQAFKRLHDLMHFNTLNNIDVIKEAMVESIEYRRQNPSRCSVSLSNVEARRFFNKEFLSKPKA

Phospholipase A2 = Phospholipase A2 (Rattus norvegicus, UniProt P04055); experiment: Inhibition of rat cloned sPLA2-1B expressed in HEK293 cells
Phospholipase A2, sequence (P04055 whole entry): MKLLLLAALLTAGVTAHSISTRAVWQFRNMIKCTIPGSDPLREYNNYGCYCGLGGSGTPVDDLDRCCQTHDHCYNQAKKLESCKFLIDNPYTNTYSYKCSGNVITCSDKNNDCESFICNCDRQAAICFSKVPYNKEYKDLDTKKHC

[3] = Inhibition of human cloned sPLA2-5 expressed in HEK293 cells

Row | SMILES | IC50 [1] | IC50 [2] | IC50 (Phospholipase A2) | IC50 [3]
1 | O=c1cc(-c2ccc(-c3c(-c4ccccc4)oc4ccccc4c3=O)cc2)oc2ccccc12 | > 100 µM | 8.42 µM | > 100 µM | 6.5 µM
2 | O=c1cc(-c2ccc(O)c(-c3c(O)cc(O)c4c(=O)cc(-c5ccc(O)cc5)oc34)c2)oc2cc(O)cc(O)c12 [AMENTOFLAVONE] | > 100 µM | > 100 µM | > 100 µM | 41.8 µM
3 | O=c1cc(-c2ccc(-c3ccc4oc(-c5ccccc5)cc(=O)c4c3)cc2)oc2ccccc12 | > 100 µM | 11.9 µM | > 100 µM | 10.8 µM
4 | O=c1cc(-c2cccc(-c3ccc4oc(-c5ccccc5)cc(=O)c4c3)c2)oc2ccccc12 | 27.6 µM | 16.8 µM | > 100 µM | 12.8 µM
5 | O=c1cc(-c2ccc(-c3cccc(-c4cc(=O)c5ccccc5o4)c3)cc2)oc2ccccc12 | > 100 µM | 38.7 µM | > 100 µM | 23.9 µM

The remaining lines, values ahead:

Row | IC50 [1] | IC50 [2] | IC50 (Phospholipase A2) | IC50 [3] | SMILES
6 | > 100 µM | > 100 µM | > 100 µM | 17.6 µM | O=c1cc(-c2ccc(Oc3cc(-c4cc(=O)c5c(O)cc(O)cc5o4)ccc3O)cc2)oc2cc(O)cc(O)c12 [OCHNAFLAVONE]
7 | > 100 µM | 6 µM | > 100 µM | 8.7 µM | O=c1cc(-c2ccc(-c3ccc(-c4cc(=O)c5ccccc5o4)cc3)cc2)oc2ccccc12
8 | > 100 µM | 48.1 µM | > 100 µM | 50 µM | O=c1cc(-c2ccccc2)oc2ccc(-c3ccc4oc(-c5ccccc5)cc(=O)c4c3)cc12
